Data: PubChem BioAssay AID179 (DTP/NCI, 2004)
Several values for one entry are separate records, joined by “and”; a condition that tells them apart may be missing. Identical values can stand only once. Activity calls are given as the source filed them.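 How the source made its calls: active means compounds giving half or more protection of infected cells from virus-caused growth loss, again on retest; inactive means the rest.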 Where a SMILES comes first, the peptide text is derived from it.

System: CEM cells HIV-1 protection, formazan growth assay
Test: NCI AIDS Antiviral Assay
Settings: for IC50: measured here: growth of uninfected CEM cells
Method in brief: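 Five concentrations of each compound were applied to infected and uninfected human CEM cells. Protection from HIV-1 was judged from growth measured with a soluble formazan assay.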

| Structure (SMILES) | EC50 | IC50 | outcome |
| --- | --- | --- | --- |
| CC(C)CC(N)C(=O)NC(CC(=O)O)C(=O)NC(CCCCN)C(=O)NC(C)C(=O)NC(CO)C(=O)NC(Cc1ccc(O)cc1)C(=O)NC(CO)C(=O)NC(C(=O)NC(CC(N)=O)C(=O)O)C(C)O (stereo not given) (H-LDKASYSTN-OH; configuration not given here) | > 50.1 µM | > 50.1 µM | – |
| COc1ccc2nc3ccccc3c(NCCCCN(C)CCCl)c2c1 | > 2 µM | 0.151 µM | – |
| CC(C)(C)c1cc2c(OP(c3ccccc3)c3ccccc3)c(c1)Cc1cc(C(C)(C)C)cc(c1OP(c1ccccc1)c1ccccc1)Cc1cc(C(C)(C)C)cc(c1OP(c1ccccc1)c1ccccc1)Cc1cc(C(C)(C)C)cc(c1OP(c1ccccc1)c1ccccc1)C2 | > 1.05 µM | > 1.05 µM | – |
| Cn1c2ccccc2[n+]2c(N)scc12 | > 200 µM | 39.8 µM | – |
| Cc1cccc2c1CC1(Cc3c(C)cccc3C1=O)C2=O | > 200 µM | > 200 µM | – |
| N#C/C(=C\c1ccc(F)cc1)c1nc2ccccc2c(=O)[nH]1 | – | – | inactive |
| COC1C=C(NCC2(CO)CCC2)NC(N)=N1 (stereo not given) | > 200 µM | > 200 µM | – |
| O=[N+]([O-])c1cccc2nc3ccccc3c(NCCCCCNc3c4ccccc4nc4cccc([N+](=O)[O-])c34)c12 | 0.0195 µM | 0.0832 µM | – |
| O=c1cn[nH]c2ccccc12 | > 741 µM | > 741 µM | – |
| O=c1[nH]c(=O)n(COCc2ccccc2)c2ccc([N+](=O)[O-])cc12 | > 200 µM | > 200 µM | – |
| O=C(O)[C@@H]1CSC(c2ccccc2Cl)N1 (stereo not given in full) | > 200 µM | 141 µM | – |
| Cc1ccc2c(n1)C(N1CCCCC1)=CC(=O)C2=O | – | – | inactive |
| COc1cc(/C=C/c2csnn2)cc(OC)c1OC | > 468 µM | 117 µM | – |
| CC(NCCCNC(C)C(=O)O)C(=O)O (stereo not given) | > 661 µM | > 661 µM | – |
| Nc1nc(Cl)c2[nH]c(Cl)nc2n1 | > 200 µM | 132 µM | – |
| CC1(C)OC[C@@H](O)[C@H](Br)CO1 | > 200 µM | 77.6 µM | – |
| CN(C)CCCNc1c2ccccc2nc2cccc([N+](=O)[O-])c12 | > 0.2 µM | 0.000407 µM | – |
| CC1(C)C(=O)c2cc3ccccc3nc2-c2ccccc21 | > 200 µM | 24.5 µM | – |
| COc1cc2c(c([N+](=O)[O-])c1)NC(=O)C(C)S2 (stereo not given) | > 200 µM | 49 µM | – |
| CCN1CCC(O)(c2ccc(C)cc2)C(C(=O)c2ccc(C)cc2)C1 (stereo not given) | > 162 µM | 11.7 µM | – |
| O=C(OC(=C(c1ccccc1)c1ccccc1)N1CCCC1=S)C(c1ccccc1)c1ccccc1 | > 200 µM | > 200 µM | – |
| CCOC1(OCC)CS(=O)(=O)C1c1ccccc1 (stereo not given) | > 661 µM | > 661 µM | – |

| Structure (SMILES) | EC50 | IC50 | outcome |
| --- | --- | --- | --- |
| COc1ccc2c(=O)c3ccccc3oc2c1 | > 200 µM | 97.7 µM | – |
| CC1CCC2CC1NC(=O)CCOCCC(=O)NC2(C)C (stereo not given) | > 45.7 µM | > 45.7 µM | – |
| CC(=O)c1cccc(C)c1C(=O)O | – | – | inactive |
| CCOP(=O)(OCC)/C(C#N)=C/c1ccc(Br)cc1 | > 275 µM | 162 µM | – |
| Cc1cc(S(=O)(=O)Nc2n[nH]c(N)n2)c(S)cc1Cl | > 200 µM | > 200 µM | – |
| COc1c(C)c(O)c2c(c1C)OC(c1ccccc1)CC2=O (stereo not given) | > 17.4 µM | > 17.4 µM | – |
| C=CC(C)(C)C(=C)C(=O)Nc1ccccc1I | > 200 µM | > 200 µM | – |
| CSc1nc(NC2OCC(O)C(O)C2O)c(N)c(=O)[nH]1 (stereo not given) | – | – | inactive |
| FC1(F)ON2CCc3ccccc3C2[C@H]1c1ccccc1 (stereo not given in full) | > 200 µM | 15.5 µM | – |
| O=C1CSC(c2ccc([N+](=O)[O-])cc2)N1c1ccc(-n2c(-c3ccccc3)nc3ccccc3c2=O)cc1 (stereo not given) | > 200 µM | 129 µM | – |
| CC(C)=NNc1snnc1C(N)=O | > 200 µM | > 200 µM | – |
| CCN(C(C)=O)c1cnc(/C=N/NC(N)=S)c2ccccc12 | > 200 µM | 2.57 µM | – |
| COc1cccc(/C=C2/Sc3sc(C(C)=O)c(C)[n+]3C2=O)c1O | > 89.1 µM | 34.7 µM | – |
| Cc1c([O-])c([O-])c(-c2c([O-])c([O-])c(C)c3c2OCO3)c2c1OCO2.[C-]#[O+].[C-]#[O+].[C-]#[O+].[C-]#[O+].[C-]#[O+].[C-]#[O+].[C-]#[O+].[C-]#[O+].[Re].[Re] | > 174 µM | 93.3 µM | – |
| CCOc1cnc([C@H]2CCC3[C@@H]4CC=C5C[C@@H](OC(C)=O)CC[C@]5(C)C4CC[C@@]32C)s1 (stereo not given in full) | > 21.4 µM | > 21.4 µM | – |
| CC(C)=C1C=C2CC[C@@H]3[C@](C)(CCC[C@@]3(C)C(=O)O)[C@H]2CC1 | > 200 µM | 105 µM | – |
| COC(=O)c1cc(C(=CCCN=[N+]=[N-])c2cc(Cl)c(OC)c(C(=O)OC)c2)cc(Cl)c1OC | 33.1 µM | 34.7 µM | – |
| COC(=O)CCCCC(c1cc(Cl)c(OC)c(C(=O)OC)c1)c1cc(Cl)c(OC)c(C(=O)OC)c1 | > 200 µM | 13.5 µM | – |
| NC(=S)N=Nc1c(O)cc(Nc2ccc(Cl)cc2Cl)c2ccccc12 | > 138 µM | 97.7 µM | – |
| CS(=O)(=O)N1CC(CCl)c2ccc(SSc3ccc4c(c3)N(S(C)(=O)=O)CC4CCl)cc21 (stereo not given) | – | – | inactive |
| O=C(O)C1=C/C(=C(/c2ccccc2)c2cc(C(=O)O)c(O)c3ccccc23)c2ccccc2C1=O | – | – | inactive |
| CC(=O)OCC1OC(N2C(=S)N[C@H]([C@@H](O)[C@H](O)[C@H](O)CO)[C@H]2O)C(OC(C)=O)C(OC(C)=O)C1OC(C)=O (stereo not given in full) | > 200 µM | > 200 µM | – |

| Structure (SMILES) | EC50 | IC50 | outcome |
| --- | --- | --- | --- |
| Cc1nc(-[n+]2nc(-c3ccncc3)nn2-c2ccccc2)sc1C | > 200 µM | 17 µM | – |
| [O-]/[N+]1=[N+](\[O-])c2ccccc2COCc2ccccc21 | – | – | inactive |
| C/C(CC(=O)Nc1ccccc1[N+](=O)[O-])=N\NC(N)=O | > 468 µM | > 468 µM | – |
| CN1CCCC(CNC23CC4CC(CC(C4)C2)C3)C1 (stereo not given) | > 501 µM | > 501 µM | – |
| O=C1NC(O)c2cc3ccccc3cc2O1 (stereo not given) | > 200 µM | 112 µM | – |
| Cc1cc2occ(/C=C\C3=C(C#N)C(=O)OC(C)(C)C3)c(=O)c2cc1C | > 7.76 µM | > 7.76 µM | – |
| Cc1cc2cc(Cl)ccc2nc1C(=O)c1ccccc1 | > 2.57 µM | > 2.57 µM | – |
| C[C@H]1OCN(C(=O)c2cc3ccccc3cc2SSc2cc3ccccc3cc2C(=O)N2CO[C@H](C)[C@H]2C(=O)O)[C@@H]1C(=O)O | > 100 µM | > 100 µM | – |
| O=C(Nc1ccc(N=C(Nc2ccccc2)c2ccccc2)cc1)c1ccc(C(=O)Nc2ccc(N=C(Nc3ccccc3)c3ccccc3)cc2)cc1 | > 200 µM | 18.2 µM | – |
| O=c1nc(-c2ccccc2)scc1-c1ccccc1 | > 38 µM | > 38 µM | – |
| CCN(CC)/N=C\c1c2ccccc2cc2ccccc12 | > 200 µM | 85.1 µM | – |
| CC(C)c1cccc(C(C)C)c1NC(=O)C(=O)Cc1nc2ccc([N+](=O)[O-])cc2[nH]c1=O | > 490 µM | 89.1 µM | – |
| N#CC1(C#N)C=CC(=C2OCC3CCCN23)C=C1 (stereo not given) | – | – | inactive |
| O=C1Cc2ccccc2CCc2ccccc21 | 135 µM | > 200 µM | – |
| O=C(C1C(c2ccccc2)N1C(c1ccccc1)c1ccccc1)C1C(c2ccccc2)N1C(c1ccccc1)c1ccccc1 (stereo not given) | > 3.39 µM | > 3.39 µM | – |
| COc1ccc(C(OCC2OC(n3ccc(Oc4c(F)c(F)c(F)c(F)c4F)nc3=O)CC2OP(OCCC#N)N(C(C)C)C(C)C)(c2ccccc2)c2ccc(OC)cc2)cc1 (stereo not given) | > 200 µM | 89.1 µM | – |
| Nc1nnnn1-c1ccccc1 | > 200 µM | > 200 µM | – |
| CN1CCC(CNC(=O)CCCCCCCCC(=O)NCC2(c3ccccc3)CCN(C)CC2)(c2ccccc2)CC1 | 97.7 µM and > 100 µM | > 100 µM | – |
| CCCCOCn1c(=O)[nH]c(=O)c2ccccc21 | > 200 µM | 162 µM | – |
| COc1cc2c(cc1OC)C(Cl)C(c1cc(OC)c(OC)c(OC)c1)=C2Cl (stereo not given) | – | – | inactive |
| Cc1oc2c(c1C)S(=O)(=O)C(C#N)=C(c1ccccc1)N2 | > 200 µM | > 200 µM | – |
| CN1C(=O)C2CCC1n1c(=O)n(-c3ccccc3)c(=O)n12 (stereo not given) | – | – | inactive |

| Structure (SMILES) | EC50 | IC50 | outcome |
| --- | --- | --- | --- |
| O=c1ssc2ccccc12 | > 200 µM | 120 µM | – |
| CC(=O)c1c(O)c2ccccc2oc1=O | > 200 µM | 120 µM | – |
| CCOC(=O)CN1C(=O)S/C(=C2\C(=O)N(C)c3ccccc32)C1=O | > 200 µM | > 200 µM | – |
| O=Cc1c(-c2ccccc2)nc2sc(-c3ccc4c(c3)OCO4)nn12 | – | – | inactive |
| CCNC(=S)N/N=C/c1cc(OC)ccc1O | > 200 µM | 107 µM | – |
| CN(C)c1ccc(/C=C/C(=O)c2ccccc2)cc1Br | > 15.8 µM | > 15.8 µM | – |
| O=C1c2ccccc2C(=O)c2c1cc(S(=O)(=O)O)c(O)c2O | – | – | inactive |
| Cc1ccc(C(=O)NC(C)C)cc1N=NN(C)C | > 145 µM | > 145 µM | – |
| O=C1C2=Cc3ccccc3OC2(O)Oc2cc(O)ccc21 (stereo not given) | > 200 µM | 49 µM | – |
| O=C(O)/C=C\C(=O)Nc1ccc(SSc2ccc(NC(=O)/C=C\C(=O)O)cc2)cc1 | 182 µM | > 200 µM | – |
| CCc1cc(-c2cccc3ccccc23)c(C#N)c(=S)[nH]1 | > 200 µM | 32.4 µM | – |
| CC1(C)Oc2ccc3c(=O)c4ccccc4oc3c2C1C(=O)O (stereo not given) | > 200 µM | > 200 µM | – |
| O=C1c2ccccc2C(=O)N1/N=C\c1ccc([N+](=O)[O-])cc1 | > 24.5 µM | > 24.5 µM | – |
| CCNCCN.[O-][Cl+3]([O-])([O-])[O-].[Pd+2].c1ccc(-c2ccccn2)nc1 | > 200 µM | 30.9 µM | – |
| CC1=Nc2c(ccc3c2C(=O)c2ccccc2C3=O)NC(c2cccc3c2CCC3)C1 (stereo not given) | > 9.33 µM | > 9.33 µM | – |
| CCOC(=O)c1cc(C)nc2c1c(=O)n(-c1ccccc1)c(=O)n2CCCCN1CCN(c2ccccc2)CC1 | > 200 µM | > 200 µM | – |
| O=C(Nc1ccc(Br)cc1)C(=O)C(C(=O)c1ccc(Cl)c(Cl)c1)C1OC(=O)c2ccccc21 (stereo not given) | > 66.1 µM | 10 µM | – |
| Cc1cn(C(C)OCCO)c(=O)[nH]c1=O (stereo not given) | > 200 µM | > 200 µM | – |
| Clc1ccc(Nc2nnc(CCCCCCCCc3nnc(Nc4ccc(Cl)cc4)o3)o2)cc1 | > 200 µM | 45.7 µM | – |
| O=C(O)CSc1n[nH]c(-c2ccco2)n1 | > 224 µM | > 224 µM | – |
